A value given as a limit tells only on which side of the number the result lay.

The first experiment concerns HCT116 cells. In words: In vitro cytotoxicity measured by the cell colony formation assay. To be noted: HCT116 cells, 72 h incubation with drug, colonies counted after 7 days; ID50 = drug concentration producing 50% inhibition of colony formation; read-out: IN VITRO ID 50 (nm) HCT116. The experiment is classed as cell-based. An outline of the steps:
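Colony-forming survival was scored 7 days after a 72 h, 37 °C compound exposure followed by washout into fresh medium.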
Turning to `COC(=O)O[C@H]1C(=O)[C@@]2(C)C([C@H](OC(=O)c3ccccc3)[C@]3(O)C[C@H](OC(=O)[C@H](O)[C@@H](NC(=O)OC(C)(C)C)c4ccco4)C(C)=C1C3(C)C)[C@]1(OC(C)=O)CO[C@@H]1C[C@@H]2O` (stereo partly shown) [Compound 2666], the IC50 was less than 1 nM.

For `CCOC(=O)O[C@H]1C(=O)[C@@]2(C)C([C@H](OC(=O)c3ccccc3)[C@]3(O)C[C@H](OC(=O)[C@H](O)[C@@H](NC(=O)c4ccccc4)c4cccs4)C(C)=C1C3(C)C)[C@]1(OC(C)=O)CO[C@@H]1C[C@@H]2O` (stereo partly shown) [Compound 2972], the IC50 is less than 10 nM.

On to `CCOC(=O)N[C@@H](c1cccs1)[C@@H](O)C(=O)O[C@H]1C[C@@]2(O)[C@@H](OC(=O)c3ccccc3)C3[C@](C)(C(=O)[C@H](OC(=O)OCC)C(=C1C)C2(C)C)[C@@H](O)C[C@H]1OC[C@@]31OC(C)=O` (stereo partly shown) [Compound 2988], for which the IC50 is less than 1 nM.

Regarding `CCOC(=O)O[C@H]1C(=O)[C@@]2(C)C([C@H](OC(=O)c3ccccc3)[C@]3(O)C[C@H](OC(=O)[C@H](O)[C@@H](NC(=O)OC(C)C)c4cccs4)C(C)=C1C3(C)C)[C@]1(OC(C)=O)CO[C@@H]1C[C@@H]2O` (stereo partly shown) [Compound 2999], the IC50 is less than 1 nM.

Consider `CCOC(=O)O[C@H]1C(=O)[C@@]2(C)C([C@H](OC(=O)c3ccccc3)[C@]3(O)C[C@H](OC(=O)[C@H](O)[C@@H](NC(=O)OCC(C)C)c4cccs4)C(C)=C1C3(C)C)[C@]1(OC(C)=O)CO[C@@H]1C[C@@H]2O` (stereo partly shown) [Compound 3003], for which the IC50 was less than 10 nM.

Take `CCOC(=O)O[C@H]1C(=O)[C@@]2(C)C([C@H](OC(=O)c3ccccc3)[C@]3(O)C[C@H](OC(=O)[C@H](O)[C@@H](NC(=O)c4ccco4)c4cccs4)C(C)=C1C3(C)C)[C@]1(OC(C)=O)CO[C@@H]1C[C@@H]2O` (stereo partly shown) [Compound 3011]: the IC50 is less than 1 nM.

Turning to `CCOC(=O)O[C@H]1C(=O)[C@@]2(C)C([C@H](OC(=O)c3ccccc3)[C@]3(O)C[C@H](OC(=O)[C@H](O)[C@@H](NC(=O)c4cccs4)c4cccs4)C(C)=C1C3(C)C)[C@]1(OC(C)=O)CO[C@@H]1C[C@@H]2O` (stereo partly shown) [Compound 3020], the IC50 is less than 1 nM.

The same experiment, now with this note: HCT116 cells, colony formation, 72 h incubation with drug, colonies counted after 7 days; ID50 = drug concentration producing 50% inhibition of colony formation; read-out: IN VITRO ID 50 (nm) HCT116.
For the compound `CCNC(=O)O[C@H]1C(=O)[C@@]2(C)C([C@H](OC(=O)c3ccccc3)[C@]3(O)C[C@H](OC(=O)[C@H](O)[C@H](C=C(C)C)NC(=O)OC(C)(C)C)C(C)=C1C3(C)C)[C@]1(OC(C)=O)CO[C@@H]1C[C@@H]2O` (stereo partly shown) [Compound 2686], the IC50 is less than 1 nM.

On to `CCNC(=O)O[C@H]1C(=O)[C@@]2(C)C([C@H](OC(=O)c3ccccc3)[C@]3(O)C[C@H](OC(=O)[C@H](O)[C@@H](NC(=O)OC(C)(C)C)c4ccco4)C(C)=C1C3(C)C)[C@]1(OC(C)=O)CO[C@@H]1C[C@@H]2O` (stereo partly shown) [Compound 2700], for which the IC50 is less than 1 nM.

For `CCNC(=O)O[C@H]1C(=O)[C@@]2(C)C([C@H](OC(=O)c3ccccc3)[C@]3(O)C[C@H](OC(=O)[C@H](O)[C@@H](NC(=O)OC(C)(C)C)c4ccoc4)C(C)=C1C3(C)C)[C@]1(OC(C)=O)CO[C@@H]1C[C@@H]2O` (stereo partly shown) [Compound 2717], the IC50 was less than 1 nM.

For the compound `CCNC(=O)O[C@H]1C(=O)[C@@]2(C)C([C@H](OC(=O)c3ccccc3)[C@]3(O)C[C@H](OC(=O)[C@H](O)[C@@H](NC(=O)OC(C)(C)C)c4cccs4)C(C)=C1C3(C)C)[C@]1(OC(C)=O)CO[C@@H]1C[C@@H]2O` (stereo partly shown) [Compound 2722, 3′-Desphenyl-3′-(2-thienyl)-10-N-ethylcarbamoyl docetaxel], the IC50 was less than 1 nM.

As for `CCNC(=O)O[C@H]1C(=O)[C@@]2(C)C([C@H](OC(=O)c3ccccc3)[C@]3(O)C[C@H](OC(=O)[C@H](O)[C@@H](NC(=O)OC(C)(C)C)C4CCC4)C(C)=C1C3(C)C)[C@]1(OC(C)=O)CO[C@@H]1C[C@@H]2O` (stereo partly shown) [Compound 2733], the IC50 was less than 10 nM.

Consider `CCNC(=O)O[C@H]1C(=O)[C@@]2(C)C([C@H](OC(=O)c3ccccc3)[C@]3(O)C[C@H](OC(=O)[C@H](O)[C@@H](NC(=O)OC(C)(C)C)c4ccc([N+](=O)[O-])cc4)C(C)=C1C3(C)C)[C@]1(OC(C)=O)CO[C@@H]1C[C@@H]2O` (stereo partly shown) [Compound 2743], for which the IC50 was less than 1 nM.

Take `CCNC(=O)O[C@H]1C(=O)[C@@]2(C)C([C@H](OC(=O)c3ccccc3)[C@]3(O)C[C@H](OC(=O)[C@H](O)[C@@H](NC(=O)OC(C)(C)C)C4CC4)C(C)=C1C3(C)C)[C@]1(OC(C)=O)CO[C@@H]1C[C@@H]2O` (stereo partly shown) [Compound 2757]: the IC50 was less than 1 nM.

The experiment is the same for the next values; noted with them: HCT116 colony formation; 72 h drug incubation, colonies counted after 7 days; Example 5, C-7 ester/C-10 hydroxy taxanes; read-out: IN VITRO ID 50 (nm) HCT116.
For `CCC(=O)O[C@H]1C[C@H]2OC[C@@]2(OC(C)=O)C2[C@H](OC(=O)c3ccccc3)[C@]3(O)C[C@H](OC(=O)[C@H](O)[C@@H](NC(=O)c4ccco4)c4cccs4)C(C)=C([C@@H](O)C(=O)[C@@]21C)C3(C)C` (stereo partly shown) [Compound 3069], the IC50 is less than 1 nM.

As for `CCC(=O)O[C@H]1C[C@H]2OC[C@@]2(OC(C)=O)C2[C@H](OC(=O)c3ccccc3)[C@]3(O)C[C@H](OC(=O)[C@H](O)[C@@H](NC(=O)OC(C)C)c4cccs4)C(C)=C([C@@H](O)C(=O)[C@@]21C)C3(C)C` (stereo partly shown) [Compound 3082], the IC50 is less than 1 nM.

The experiment is the same for the next values; noted with them: HCT116 colony formation; 72 h drug incubation, colonies counted after 7 days; Example 10, C-10 ester/C-7 hydroxy taxanes; read-out: IN VITRO ID 50 (nm) HCT116.
On to `CC(=O)O[C@@]12CO[C@@H]1C[C@H](O)[C@@]1(C)C(=O)[C@H](OC(=O)C3CC3)C3=C(C)[C@@H](OC(=O)[C@H](O)[C@@H](NC(=O)OC(C)(C)C)c4ccoc4)C[C@@](O)([C@@H](OC(=O)c4ccccc4)C12)C3(C)C` (stereo partly shown) [Compound 2781], for which the IC50 was less than 1 nM.

On to `CC(=O)O[C@@]12CO[C@@H]1C[C@H](O)[C@@]1(C)C(=O)[C@H](OC(=O)C3CC3)C3=C(C)[C@@H](OC(=O)[C@H](O)[C@@H](NC(=O)OC(C)(C)C)c4ccsc4)C[C@@](O)([C@@H](OC(=O)c4ccccc4)C12)C3(C)C` (stereo partly shown) [Compound 2794], for which the IC50 is less than 1 nM.

With `CC(=O)O[C@@]12CO[C@@H]1C[C@H](O)[C@@]1(C)C(=O)[C@H](OC(=O)C3CC3)C3=C(C)[C@@H](OC(=O)[C@H](O)[C@@H](NC(=O)OC(C)(C)C)c4ccccn4)C[C@@](O)([C@@H](OC(=O)c4ccccc4)C12)C3(C)C` (stereo partly shown) [Compound 2802], the IC50 was less than 1 nM.

With `CC(=O)O[C@@]12CO[C@@H]1C[C@H](O)[C@@]1(C)C(=O)[C@H](OC(=O)C3CC3)C3=C(C)[C@@H](OC(=O)[C@H](O)[C@@H](NC(=O)OC(C)(C)C)c4ccncc4)C[C@@](O)([C@@H](OC(=O)c4ccccc4)C12)C3(C)C` (stereo partly shown) [Compound 2813], the IC50 was less than 1 nM.

`CC(=O)O[C@@]12CO[C@@H]1C[C@H](O)[C@@]1(C)C(=O)[C@H](OC(=O)C3CC3)C3=C(C)[C@@H](OC(=O)[C@H](O)[C@@H](NC(=O)c4ccccc4)c4ccoc4)C[C@@](O)([C@@H](OC(=O)c4ccccc4)C12)C3(C)C` (stereo partly shown) [Compound 2826]: the IC50 is less than 1 nM.

With `CC(=O)O[C@@]12CO[C@@H]1C[C@H](O)[C@@]1(C)C(=O)[C@H](OC(=O)C3CC3)C3=C(C)[C@@H](OC(=O)[C@H](O)[C@@H](NC(=O)c4ccccc4)c4ccsc4)C[C@@](O)([C@@H](OC(=O)c4ccccc4)C12)C3(C)C` (stereo partly shown) [Compound 2838], the IC50 is less than 1 nM.

Consider `CC(=O)O[C@@]12CO[C@@H]1C[C@H](O)[C@@]1(C)C(=O)[C@H](OC(=O)C3CC3)C3=C(C)[C@@H](OC(=O)[C@H](O)[C@@H](NC(=O)c4ccccc4)c4ccccn4)C[C@@](O)([C@@H](OC(=O)c4ccccc4)C12)C3(C)C` (stereo partly shown) [Compound 2844], for which the IC50 is less than 10 nM.

Regarding `CC(=O)O[C@@]12CO[C@@H]1C[C@H](O)[C@@]1(C)C(=O)[C@H](OC(=O)C3CC3)C3=C(C)[C@@H](OC(=O)[C@H](O)[C@@H](NC(=O)c4ccccc4)c4ccncc4)C[C@@](O)([C@@H](OC(=O)c4ccccc4)C12)C3(C)C` (stereo partly shown) [Compound 2855], the IC50 was less than 1 nM.

As for `CC(=O)O[C@@]12CO[C@@H]1C[C@H](O)[C@@]1(C)C(=O)[C@H](OC(=O)C3CC3)C3=C(C)[C@@H](OC(=O)[C@H](O)[C@@H](NC(=O)c4ccccc4)c4ccc([N+](=O)[O-])cc4)C[C@@](O)([C@@H](OC(=O)c4ccccc4)C12)C3(C)C` (stereo partly shown) [Compound 2869], the IC50 was less than 10 nM.

Regarding `CCC(=O)O[C@H]1C(=O)[C@@]2(C)C([C@H](OC(=O)c3ccccc3)[C@]3(O)C[C@H](OC(=O)[C@H](O)[C@@H](NC(=O)c4ccco4)c4cccs4)C(C)=C1C3(C)C)[C@]1(OC(C)=O)CO[C@@H]1C[C@@H]2O` (stereo partly shown) [Compound 3053], the IC50 is less than 1 nM.

With `CC(=O)O[C@@]12CO[C@@H]1C[C@H](O)[C@@]1(C)C(=O)[C@H](OC(=O)C3CC3)C3=C(C)[C@@H](OC(=O)[C@H](O)[C@@H](NC(=O)OC(C)C)c4cccs4)C[C@@](O)([C@@H](OC(=O)c4ccccc4)C12)C3(C)C` (stereo partly shown) [Compound 3071], the IC50 was less than 1 nM.

`CC(=O)O[C@@]12CO[C@@H]1C[C@H](O)[C@@]1(C)C(=O)[C@H](OC(=O)C3CC3)C3=C(C)[C@@H](OC(=O)[C@H](O)[C@@H](NC(=O)OCC(C)C)c4ccco4)C[C@@](O)([C@@H](OC(=O)c4ccccc4)C12)C3(C)C` (stereo partly shown) [Compound 3102]: the IC50 was less than 1 nM.

For `CCCC(=O)O[C@H]1C(=O)[C@@]2(C)C([C@H](OC(=O)c3ccccc3)[C@]3(O)C[C@H](OC(=O)[C@H](O)[C@@H](NC(=O)OCC(C)C)c4ccco4)C(C)=C1C3(C)C)[C@]1(OC(C)=O)CO[C@@H]1C[C@@H]2O` (stereo partly shown) [Compound 3110], the IC50 is less than 1 nM.

Consider `CC(=O)O[C@@]12CO[C@@H]1C[C@H](O)[C@@]1(C)C(=O)[C@H](OC(=O)C3CC3)C3=C(C)[C@@H](OC(=O)[C@H](O)[C@@H](NC(=O)OCC(C)C)c4cccs4)C[C@@](O)([C@@H](OC(=O)c4ccccc4)C12)C3(C)C` (stereo partly shown) [Compound 3129], for which the IC50 is less than 10 nM.

Regarding `CCCC(=O)N[C@@H](c1cccs1)[C@@H](O)C(=O)O[C@H]1C[C@@]2(O)[C@@H](OC(=O)c3ccccc3)C3[C@](C)(C(=O)[C@H](OC(=O)C4CC4)C(=C1C)C2(C)C)[C@@H](O)C[C@H]1OC[C@@]31OC(C)=O` (stereo partly shown) [Compound 3132], the IC50 was less than 1 nM.

The record behind these values is US6638973B2, “Taxane formulations” (FSU Research Foundation, Inc., priority 2000, dated 2003).
